Test results published in article PMC7211193, “Evaluation of absorption, distribution, metabolism, and excretion of [^14C]-rucaparib, a poly(ADP-ribose) polymerase inhibitor, in patients with advanced solid tumors” (Investigational New Drugs, 2019).
Where “and” joins values, the source holds several entries; their conditions need not be identical. Equal values may be shown once.

Experiments:
Type in all cases: in vivo, human
[1] = Metabolite profiling in pooled feces (LC-MS-Radiomatic); settings: for Amount detected in feces: pooled fecal homogenates, mainly observed by MS only
Method: For each patient, homogenized feces samples from different collection intervals were pooled in proportion to their sample weight in order to obtain a pooled sample covering 90% of the TRA recovered in feces. Aliquots of the pooled fecal samples were extracted at least twice with acetonitrile. The obtained supernatant was evaporated. The dried residues were reconstituted in 40% DMSO in water to obtain maximum recovery. An aliquot of the supernatant was analyzed for TRA to determine extraction efficiency, and the mean recovery was ≈75%. Aliquots of the supernatants were injected into the HPLC coupled to UV and radioactive detectors to obtain metabolite profiles. The sample supernatants were also analyzed using LC-MS to identify metabolites.
(§1) Metabolite profiling and identification were performed on an LC system (Agilent) coupled to an LTQ Orbitrap mass spectrometer (Thermo Electron, Waltham, MA, USA) in combination with offline TopCount (LC-MS-TopCount) or online Radiomatic 625TR (LC-MS-Radiomatic; PerkinElmer). Proposed structures of the metabolites were based on accurate mass (<5 ppm) and comparison of mass spectral data of parent compound rucaparib and metabolite standard M324. The Radiomatic 625TR flow detector, equipped with a 200 μL flow cell, was operated using scintillation cocktail (Ultima-Flo M) delivered at a flow rate of 1 mL/min. Chromatography was done using a Phenomenex (Torrance, CA, USA) Luna Phenyl-Hexyl column (250 × 2 mm, 5 μm, 100 Å) at ambient temperature during the sample analysis. The mobile phase was (A) 0.05% TFA in water and (B) 0.05% TFA in acetonitrile, with a 0.2 mL/min flow rate. The gradient was as follows: 5% B over 2.1 min, to 20% B in 1.0 min, to 35% B in 16.9 min, isocratic at 35% B for 5 min, to 95% B over 5 min, and reduced to 5% B over 1 min, with total run time 45 min.
(§2) The abundance of unchanged rucaparib and metabolites identified in plasma, urine, and feces was determined as a percentage of the TRA in the analyzed samples. Percentage of the administered dose of rucaparib and metabolites was calculated in urine and feces (formula A). The concentration of rucaparib and its metabolites in plasma (ng Eq h/mL) was calculated based on the specific activity, TRA, and percentage of peaks (formula B). The AUC0-24h value of rucaparib and its major metabolite M324 in plasma was calculated using both Hamilton method (formula C) and linear trapezoidal method (formula D). • (A) %Doseofmetabolite=TRAinurineorfeces(dpm)÷TRAinadministereddose(dpm)×%metabolitesinmatrix • (B) Metaboliteconcentrationsinplasma(ngEq/mL)=TRAinplasma(dpm/mL)specificactivity(ngEq/dpm)×%metabolitesinthematrix • (C) Hamiltonmethod:AUC0−24h(ngEqh/mL)=concentrationinHamilton(AUC0−24h)pooledplasma(ngEq/mL)×24(h) • (D) Lineartrapezoidalmethod:AUC0−24h(ngEqh/mL)=C1h/2×1h+C1h+C4h/2×(4h−1h)+C4h+C8h/2×(8h−4h)+C8h+C24h/2×(24h−8h)

[2] = Metabolite profiling in plasma (LC-MS-TopCount); settings: for Amount detected in plasma: Hamilton AUC0-24h pooled plasma
Method: Plasma samples from six patients were pooled using two methods: (1) A Hamilton pool plasma (0–24 h) for metabolite profile determination was prepared by combining plasma aliquots of a volume proportional to the time interval used for calculating the AUC (AUC0-24h pool) for each patient and (2) four time-point pooling samples were obtained by equal volume pool at 1, 4, 8, and 24 h across six patients. In addition, plasma samples at 1, 8, and 24 h were selected from three patients (Patients 03, 08, and 09) for metabolite profiles analysis to check the individual differences between patients. Samples collected after 24 h post dose were not included in the pooling due to the low radioactivity at later time points. All plasma samples (pooled and from individuals) were extracted at least two times with acetonitrile. All supernatants were evaporated to dryness, and the dried residues were reconstituted in 20% acetonitrile in water containing 0.1% TFA. The sample recovery was obtained by comparing the radioactivity concentrations before and after extraction, and the mean recovery was about 70%.
Aliquots of the supernatants were injected into the HPLC, and the HPLC elutes were collected as fractions at intervals of 30 sec per well into LumaPlate-96 DeepWell microplates (PerkinElmer). Due to the low radioactivity in each plasma sample, metabolite profiles were obtained by TopCount (PerkinElmer) analysis of HPLC elutes. The fractions were dried at room temperature, and then analyzed by a TopCount NXT radiometric microplate reader (PerkinElmer) to obtain metabolite profiles. The supernatants of extracts were also analyzed using an LC-MS method to identify metabolites.
as §1, §2

[3] = Metabolite profiling in pooled urine (LC-MS-Radiomatic)
Method: For each patient, urine samples from different collection intervals were pooled in proportion to their sample weight in order to obtain a pooled sample covering 90% of the TRA in urine. Pooled urine samples were lyophilized and then extracted at least twice with acetonitrile. The obtained supernatant was evaporated to dryness, and the dried residues were reconstituted in 20% acetonitrile in water containing 0.1% TFA. An aliquot of the supernatant was analyzed for TRA to determine extraction efficiency, and the mean recovery was ≈70%. Aliquots of the supernatants were injected into the HPLC coupled to UV and radioactive detectors to obtain metabolite profiles. The samples were also analyzed using LC-MS for metabolite identification.
as §1, §2

[4] = Metabolite identification by LC-MS/MS in plasma, urine and feces; settings: F feces, P plasma, U urine
Method: as §1
The LTQ Orbitrap mass spectrometer was equipped with an electrospray ionization interface and operated in positive ionization mode for metabolite profiling and identification. Mass spectra were acquired in full scan (MS) (m/z 150–1500) and data-dependent scan modes. Mass spectrometer parameter settings were: spray voltage, +5.0 kV; capillary temperature, 350 °C; sheath gas, 80 (arbitrary unit); auxiliary gas, 30 (arbitrary unit); activation Q, 0.25; activation time, 30 msec; resolution, 7500; and collision energy, 35 eV.
The structures of the metabolites were identified by LC-MS/MS based on comparisons of mass spectral fragmentation patterns with those produced by the parent compound. Further confirmation of the identities of the metabolites was based on the elemental composition determined from accurate mass analyses using an Orbitrap high-resolution mass spectrometer.
The structures of the major metabolites found in plasma, urine, and feces were also confirmed by comparisons with the synthetic reference standard M324.

[5] = 0-24 h pooled plasma, N = 6, mean ± SD

Structure (SMILES): NCc1ccc(-c2[nH]c3cc(F)cc4c3c2CCNC4=O)cc1 [M309]
- Amount detected in feces [1]: trace amounts
- Amount detected in plasma [2]: small or trace amounts
- Amount observed in urine ([3]; pooled urine): small to trace amounts
- Matrix in which identified [4]: P, U, F

Structure (SMILES): NC(=O)c1ccc(-c2[nH]c3cc(F)cc4c3c2CCNC4=O)cc1 [M323]
- Amount detected in feces [1]: trace amounts
- Amount detected in plasma [2]: small or trace amounts
- Amount observed in urine ([3]; pooled urine): small to trace amounts
- Matrix in which identified [4]: P, U, F

Structure (SMILES): O=C(O)c1ccc(-c2[nH]c3cc(F)cc4c3c2CCNC4=O)cc1 [M324]
- % of dose in pooled fecal homogenate, Patient 01 ([1]; Patient 01): 6.39 % dose
- % of dose in pooled fecal homogenate, Patient 03 ([1]; Patient 03): 7.82 % dose
- % of dose in pooled fecal homogenate, Patient 05 ([1]; Patient 05): 3.33 % dose
- % of dose in pooled fecal homogenate, Patient 06 ([1]; Patient 06): 2.22 % dose
- % of dose in pooled fecal homogenate, Patient 08 ([1]; Patient 08): 0.00 % dose
- % of dose in pooled fecal homogenate, Patient 09 ([1]; Patient 09): 0.00 % dose
- % Peak (of TRA) in feces ([1]; pooled fecal homogenate covering >90% of fecal excretion, N = 6, mean ± SD): 5.07 ± 4.95%
- % Dose in feces ([1]; pooled fecal homogenate, % of administered dose, N = 6, mean ± SD): 3.3% and 3.29 ± 3.25%
- % Peak (of plasma radioactivity), Hamilton (AUC0-24h) pooled plasma [2, 5]: 18.6 ± 10.8%
- Concentration, Hamilton (AUC0-24h) pooled plasma [2, 5]: 94.0 ± 62.7 ng Eq/mL
- M324 as percentage of unchanged rucaparib exposure in 24-h pooled plasma ([2]; Hamilton 0-24 h pooled plasma): 30.3%
- % Radioactive peaks in individual plasma, Patient 03, 1 h ([2]; Patient 03, 1 h): 15.4%
- % Radioactive peaks in individual plasma, Patient 03, 8 h ([2]; Patient 03, 8 h): 33.3%
- % Radioactive peaks in individual plasma, Patient 03, 24 h ([2]; Patient 03, 24 h): 63.9%
- % Radioactive peaks in individual plasma, Patient 08, 1 h ([2]; Patient 08, 1 h): 7.94%
- % Radioactive peaks in individual plasma, Patient 08, 8 h ([2]; Patient 08, 8 h): 20%
- % Radioactive peaks in individual plasma, Patient 08, 24 h ([2]; Patient 08, 24 h): 61.5%
- % Radioactive peaks in individual plasma, Patient 09, 1 h ([2]; Patient 09, 1 h): 15.4%
- % Radioactive peaks in individual plasma, Patient 09, 8 h ([2]; Patient 09, 8 h): 17.9%
- % Radioactive peaks in individual plasma, Patient 09, 24 h ([2]; Patient 09, 24 h): 36.2%
- % Radioactive peaks in individual plasma, Mean ± SD, 1 h ([2]; Patients 03, 08, 09, 1 h): 12.9 ± 4.31%
- % Radioactive peaks in individual plasma, Mean ± SD, 8 h ([2]; Patients 03, 08, 09, 8 h): 23.7 ± 8.35%
- % Radioactive peaks in individual plasma, Mean ± SD, 24 h ([2]; Patients 03, 08, 09, 24 h): 53.9 ± 15.3%
- AUC0-24h, Hamilton (AUC0-24h) pooled plasma ([2]; concentration in 0-24-h pooled sample × 24 h): 2260 ng Eq h/mL
- concentration at 1 h ([2]; human, plasma, oral, 600 mg, single pooled sample from all six patients, 1 h, read-out: Mean concentration, time point pooled plasma, 1 h): 31.1 ng/mL
- concentration at 4 h ([2]; human, plasma, oral, 600 mg, single pooled sample from all six patients, 4 h, read-out: Mean concentration, time point pooled plasma, 4 h): 265 ng/mL
- concentration at 8 h ([2]; human, plasma, oral, 600 mg, single pooled sample from all six patients, 8 h, read-out: Mean concentration, time point pooled plasma, 8 h): 105 ng/mL
- concentration at 24 h ([2]; human, plasma, oral, 600 mg, single pooled sample from all six patients, 24 h, read-out: Mean concentration, time point pooled plasma, 24 h): 239 ng/mL
- Mean AUC0-24h, time point pooled plasma ([2]; trapezoidal method from 1, 4, 8, 24 h pools): 3960 ng Eq h/mL
- % of dose in pooled urine, Patient 01 ([3]; Patient 01): 6.17 % dose
- % of dose in pooled urine, Patient 03 ([3]; Patient 03): 7.24 % dose
- % of dose in pooled urine, Patient 05 ([3]; Patient 05): 7.22 % dose
- % of dose in pooled urine, Patient 06 ([3]; Patient 06): 8.54 % dose
- % of dose in pooled urine, Patient 08 ([3]; Patient 08): 6 % dose
- % of dose in pooled urine, Patient 09 ([3]; Patient 09): 10.3 % dose
- % Peak (of TRA) in urine ([3]; pooled urine covering 90% of urine radioactivity, N = 6, mean ± SD): 50.0 ± 15.5%
- % Dose in urine ([3]; pooled urine, % of administered dose, N = 6, mean ± SD): 7.58 ± 1.61%
- Matrix in which identified [4]: P, U, F

Structure (SMILES): O=CNCc1ccc(-c2[nH]c3cc(F)cc4c3c2CCNC4=O)cc1 [M337b]
- Amount detected in feces [1]: trace amounts
- Amount detected in plasma [2]: small or trace amounts
- Amount observed in urine ([3]; pooled urine): small to trace amounts
- Matrix in which identified [4]: P, U, F
